By IC50 is commonly meant the point on the concentration scale where inhibition reaches its midpoint.

We go through 19 compounds from US20250145589A1, “PYRIDINE DERIVATIVE AND USE THEREOF” (SICHUAN HUIYU PHARMACEUTICAL CO., LTD., priority 2021, published 2025).

The target of one assay is PI3Kα (Homo sapiens (Human), UniProt P42336). The experiment in a line: Inhibition of PI3Kα efficacy assay (ADP-Glo kinase assay). The note with it: read-out: PI3Kα inhibitory activity (IC50). It counts as biochemical. The procedure:
Inhibition of PI3Kα Efficacy assay The ADP-Glo™ kinase assay was used to assess the inhibition of PI3Kα with our compounds. The utilized proteins and assay reagents were obtained from the ADP-Glo™ Kinase Assay Kit (Promega). Initially, a 2 mM stock solution of the test compound (dissolved in DMSO) was serially diluted in five-fold concentrations using DMSO to obtain eight working solutions 1 (200′). […] Subsequently, 2 μL of 2.5×PI and ATP solution mixture were added to each well, mixed, and incubated at RT for 60 minutes. Then, 5 μL of ADP-Glo (containing 10 mM MgCl2) reagent was added to each well, mixed, and incubated at RT for 40 minutes. Finally, 10 μL of the Kinase Detection Reagent was added to each well, mixed, and incubated at RT for 40 minutes. […] Data were analyzed using GraphPad Prism with log(inhibitor) vs. response—Variable Slope(four parameters) fitting calculations for […]. (Note: The negative control refers to the group without inhibitor, and the blank control refers to the group without enzyme.) The data were presented in Tables 1 to 4.
Background: In ADP-Glo the light output rises with the ADP produced.

A further assay concerns the target PI3Kδ (Homo sapiens (Human), UniProt O00329). Put plainly: Inhibition of PI3Kδ efficacy assay (ADP-Glo kinase assay). It counts as biochemical. The note with it: read-out: PI3Kδ inhibitory activity (IC50). As to the method: Test Example 2: Inhibition of PI3Kδ Efficacy assay The ADP-Glo™ kinase assay was used to assess the inhibition of PI3Kδ with our compounds. The utilized proteins and assay reagents were obtained from the ADP-Glo™ Kinase Assay Kit (Promega). Initially, a 2 mM stock solution of the test compound (dissolved in DMSO) was serially diluted in five-fold concentrations using DMSO to obtain eight working solutions 1 (200×) Subsequently, each of the eight working solutions 1 was further diluted in a 20-fold gradient by adding 5 μL into 95 μL of ddH2O, resulting in eight working solutions 2 (10×). […] Subsequently, 2 μL of 2.5×PI and ATP solution mixture were added to each well, mixed, and incubated at RT for 60 minutes. Then, 5 μL of ADP-Glo (containing 10 mM MgCl2) reagent was added to each well, mixed, and incubated at RT for 40 minutes. Finally, 10 μL of the Kinase Detection Reagent was added to each well, mixed, and incubated at RT for 40 minutes. Luminescence values were recorded using a multi-mode microplate reader with luminescence channel settings, and the inhibitory rate was calculated using the following formula: [formula] Data were analyzed using GraphPad Prism with log(inhibitor) vs. response—Variable Slope(four parameters) fitting calculations for IC50 values.

Assay [1] has as its system NCI-H358 cells (KRAS G12C mutant). Put plainly: NCI-H358 cell proliferation inhibition (CellTiter-Glo). It counts as cell-based. The note with it: Homo sapiens, NCI-H358, 72 h. The procedure: The CellTiter-Glo®, assay was used to detect the number of viable cells, in order to evaluate the anti-proliferation efficacy of compounds. […] The compounds were serially diluted 5-fold in DMSO to obtain 8 concentrations, and then further diluted with RPMI-640 (10% FBS) cell culture medium to obtain the working solutions (5′), 20 μL of each working solution was added to the cell culture supernatant in each well, and the plate was further incubated for 3 days at 37° C. with 5% CO2. The plate was then equilibrated with CellTiter-Glo® reagent at room temperature (25° C.) for 10-30 minutes. After aspirating 50 μL of the medium, 50 μL of CellTiter-Glo® reagent was added. The cells were thoroughly mixed with the CellTiter-Glo® reagent using a microplate shaker for 2 minutes, and then incubated at room temperature for 10 minutes. The 96-well plate was placed in a multi-mode microplate reader to record the luminescence values (RLU). The inhibition rate was calculated through the following equation: [formula] Data were analyzed using GraphPad Prism for IC50 values (Note: The negative control refers to the group without inhibitor).

[2] abbreviates: H358 cells (G12C mutation), 3 days, Table 6, read-out: NCI-H358 (IC50).

Read-outs that look alike come from different tables or passages of the source. Where only a bound is given, the exact number is not on record here.

PI3Kα, sequence (P42336 whole entry): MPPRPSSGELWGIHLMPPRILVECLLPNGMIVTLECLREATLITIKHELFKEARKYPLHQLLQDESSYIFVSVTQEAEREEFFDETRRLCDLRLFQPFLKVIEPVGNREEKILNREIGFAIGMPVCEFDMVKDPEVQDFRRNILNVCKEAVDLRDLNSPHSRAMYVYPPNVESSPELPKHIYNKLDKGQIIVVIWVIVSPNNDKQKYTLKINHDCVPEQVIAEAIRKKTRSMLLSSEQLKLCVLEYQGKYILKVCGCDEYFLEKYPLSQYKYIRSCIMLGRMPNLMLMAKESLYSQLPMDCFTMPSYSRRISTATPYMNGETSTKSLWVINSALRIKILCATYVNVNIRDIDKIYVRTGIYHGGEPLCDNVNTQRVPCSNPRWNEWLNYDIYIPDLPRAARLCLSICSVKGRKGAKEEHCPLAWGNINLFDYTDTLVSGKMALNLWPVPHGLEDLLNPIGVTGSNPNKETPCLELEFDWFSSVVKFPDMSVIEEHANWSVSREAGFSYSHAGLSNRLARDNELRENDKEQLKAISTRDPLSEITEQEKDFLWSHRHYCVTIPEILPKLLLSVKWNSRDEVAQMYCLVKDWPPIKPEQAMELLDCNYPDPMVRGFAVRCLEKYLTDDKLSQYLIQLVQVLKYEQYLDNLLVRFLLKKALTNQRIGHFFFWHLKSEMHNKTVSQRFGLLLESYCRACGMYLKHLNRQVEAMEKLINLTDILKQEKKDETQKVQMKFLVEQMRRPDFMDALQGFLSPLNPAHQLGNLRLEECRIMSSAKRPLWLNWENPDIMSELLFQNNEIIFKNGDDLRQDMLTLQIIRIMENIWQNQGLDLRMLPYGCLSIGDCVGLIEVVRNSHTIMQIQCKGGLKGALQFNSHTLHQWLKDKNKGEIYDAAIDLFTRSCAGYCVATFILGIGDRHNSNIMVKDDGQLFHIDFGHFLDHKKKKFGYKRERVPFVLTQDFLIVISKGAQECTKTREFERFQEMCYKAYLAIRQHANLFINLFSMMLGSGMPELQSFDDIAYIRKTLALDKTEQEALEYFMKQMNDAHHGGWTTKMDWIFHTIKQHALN
PI3Kα, sequence (P27986 whole entry partner): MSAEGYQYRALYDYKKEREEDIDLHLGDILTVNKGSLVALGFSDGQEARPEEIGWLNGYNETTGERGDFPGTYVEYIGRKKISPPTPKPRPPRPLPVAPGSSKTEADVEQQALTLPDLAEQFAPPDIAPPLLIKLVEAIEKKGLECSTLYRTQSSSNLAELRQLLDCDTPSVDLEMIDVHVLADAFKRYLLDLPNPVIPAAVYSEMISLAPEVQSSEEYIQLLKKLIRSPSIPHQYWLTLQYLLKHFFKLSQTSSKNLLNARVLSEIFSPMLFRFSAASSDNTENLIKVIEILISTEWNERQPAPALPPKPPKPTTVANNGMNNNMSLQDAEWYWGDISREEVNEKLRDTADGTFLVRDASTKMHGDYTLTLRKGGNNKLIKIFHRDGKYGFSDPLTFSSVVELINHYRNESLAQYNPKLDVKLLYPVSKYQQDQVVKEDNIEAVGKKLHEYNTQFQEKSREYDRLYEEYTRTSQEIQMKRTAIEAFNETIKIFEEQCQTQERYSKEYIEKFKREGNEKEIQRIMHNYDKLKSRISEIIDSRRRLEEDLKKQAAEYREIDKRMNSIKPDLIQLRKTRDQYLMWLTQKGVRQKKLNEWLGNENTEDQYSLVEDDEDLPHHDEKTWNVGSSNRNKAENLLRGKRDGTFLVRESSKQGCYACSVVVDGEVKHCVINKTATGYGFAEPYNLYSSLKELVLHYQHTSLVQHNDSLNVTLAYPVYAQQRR
PI3Kδ, sequence (O00329 whole entry): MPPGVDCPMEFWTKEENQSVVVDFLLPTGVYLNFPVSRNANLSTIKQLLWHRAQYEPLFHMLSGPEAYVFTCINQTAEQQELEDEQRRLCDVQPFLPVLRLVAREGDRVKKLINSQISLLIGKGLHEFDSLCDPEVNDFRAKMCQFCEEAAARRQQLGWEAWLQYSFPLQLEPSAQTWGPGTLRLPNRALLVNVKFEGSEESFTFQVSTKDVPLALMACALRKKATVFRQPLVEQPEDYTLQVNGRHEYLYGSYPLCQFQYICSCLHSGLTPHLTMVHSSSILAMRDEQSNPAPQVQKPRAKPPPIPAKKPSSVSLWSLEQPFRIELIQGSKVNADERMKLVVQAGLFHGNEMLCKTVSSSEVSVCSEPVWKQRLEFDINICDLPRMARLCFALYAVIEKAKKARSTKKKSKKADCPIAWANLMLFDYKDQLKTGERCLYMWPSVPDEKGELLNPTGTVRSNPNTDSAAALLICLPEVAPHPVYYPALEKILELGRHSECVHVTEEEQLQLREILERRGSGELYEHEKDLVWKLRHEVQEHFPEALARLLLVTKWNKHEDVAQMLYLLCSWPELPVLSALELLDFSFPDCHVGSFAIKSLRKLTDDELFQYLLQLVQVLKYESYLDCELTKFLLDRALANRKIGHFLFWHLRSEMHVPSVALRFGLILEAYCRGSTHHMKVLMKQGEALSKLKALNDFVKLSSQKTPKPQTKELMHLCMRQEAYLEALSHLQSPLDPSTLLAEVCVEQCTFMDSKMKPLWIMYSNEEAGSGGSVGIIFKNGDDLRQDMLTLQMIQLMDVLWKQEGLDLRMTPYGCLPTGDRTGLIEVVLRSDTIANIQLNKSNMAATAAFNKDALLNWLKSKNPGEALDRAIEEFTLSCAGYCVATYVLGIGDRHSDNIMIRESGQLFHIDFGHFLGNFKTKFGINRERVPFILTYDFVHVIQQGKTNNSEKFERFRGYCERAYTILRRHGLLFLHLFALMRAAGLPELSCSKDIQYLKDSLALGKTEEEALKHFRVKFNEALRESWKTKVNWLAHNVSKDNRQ
PI3Kδ, sequence (P27986 whole entry partner): as the sequence (P27986 whole entry partner) above

With `C=CC(=O)N1CCN(c2nc(N)nc3ccc(-c4cnc(OC)c(NS(=O)(=O)c5ccc(F)cc5F)c4)cc23)CC1` [Example 30, N-(5-(4-(4-acryloylpiperazin-1-yl)-2-aminoquinazolin-6-yl)-2-methoxypyridin-3-yl)-2,4-difluorobenzenesulfonamide], the IC50 was 430 nM at PI3Kα (Table 1) and 1840 nM at PI3Kδ (Table 1). As for `C=CC(=O)N1CCN(c2ncnc3ccc(-c4cnc(OC5CCCC5)c(NS(=O)(=O)c5ccc(F)cc5F)c4)cc23)CC1` [Example 106, N-(5-(4-(4-acryloylpiperazin-1-yl)quinazolin-6-yl)-2-(cyclopentyloxy)pyridin-3-yl)-2,4-difluorobenzenesulfonamide], the IC50 at PI3Kα (Table 2) and at PI3Kδ (Table 2) was 117 nM in each case.

With `C=CC(=O)N1CCN(c2nc(O)nc3ccc(-c4cnc(OC)c(NS(=O)(=O)c5ccc(F)cc5F)c4)cc23)CC1` [Example 32, N-(5-(4-(4-acryloylpiperazin-1-yl)-2-hydroxyquinazolin-6-yl)-2-methoxypyridin-3-yl)-2,4-difluorobenzenesulfonamide], the IC50 on PI3Kα (Table 1) was 2260 nM; on PI3Kδ (Table 1), greater than 5000 nM. For `COc1ncc(-c2nc(N3CCOCC3)nc3c(CN4CCC(C(C)(C)O)CC4)cc(F)cc23)cc1NS(C)(=O)=O` [Linperlisib, reference compound], the IC50 at PI3Kδ (Table 1) was determined as 18 nM. `C=CC(=O)N1CCN(c2ncnc3ccc(-c4cncc(NS(=O)(=O)c5ccc(F)cc5F)c4)cc23)CC1` [Example 27, N-(5-(4-(4-acryloylpiperazin-1-yl)quinazolin-6-yl)pyridin-3-yl)-2,4-difluorobenzenesulfonamide]: the IC50 at PI3Kα (Table 1) amounted to 1.8 nM; at PI3Kδ (Table 1) it was 27.3 nM.

As to `CC(=O)/C=C/C(=O)N1CCN(c2ncnc3ccc(-c4cnc(O)c(NS(=O)(=O)c5ccc(F)cc5F)c4)cc23)CC1` [Example 129, (E)-2,4-difluoro-N-(2-hydroxy-5-(4-(4-(4-oxopent-2-enoyl)piperazin-1-yl)quinazolin-6-yl)pyridin-3-yl)benzenesulfonamide], the IC50 at PI3Kδ (Table 2) turned out to be 142 nM. As to `C=C(F)C(=O)N1CCN(c2ncnc3ccc(-c4cnc(OC)c(NS(=O)(=O)c5c(F)cccc5F)c4)cc23)C[C@@H]1CC#N` [Example 115, (S)-N-(5-(4-(3-(cyanomethyl)-4-(2-fluoroacryloyl)piperazin-1-yl)quinazolin-6-yl)-2-methoxypyridin-3-yl)-2,6-difluorobenzenesulfonamide], the IC50 is 1.9 nM on PI3Kα (Table 2) and 46.5 nM in assay [1] (setting [2]).

Consider `C=CC(=O)N1CCN(c2ncnc3ccc(-c4cnc(OC)c(NS(=O)(=O)c5c(F)cc(F)cc5F)c4)cc23)CC1` [Example 100, N-(5-(4-(4-acryloylpiperazin-1-yl)quinazolin-6-yl)-2-methoxypyridin-3-yl)-2,4,6-trifluorobenzenesulfonamide], for which the values for the IC50 (on PI3Kα (Table 2); in assay [1] (setting [2])) were 0.54 nM and 155 nM, respectively. With `COc1ncc(-c2ccc3ncnc(N4CC5CN(C(=O)/C=C/C(C)=O)CC5C4)c3c2)cc1NS(=O)(=O)c1ccc(F)cc1F` (stereo not shown) [Example 157, (E)-2,4-difluoro-N-(2-methoxy-5-(4-(5-(4-oxopent-2-enoyl)hexahydropyrrolo[3,4-c]pyrrol-2(1H)-yl)quinazolin-6-yl)pyridin-3-yl)benzenesulfonamide], the results for the IC50 (on PI3Kα (Table 4); in assay [1] (setting [2])) were 1.3 nM and 128 nM, respectively.

Regarding `COc1ncc(-c2ccc3ncnc(N4CCN(C(=O)/C(F)=C/C(C)=O)CC4)c3c2)cc1NS(=O)(=O)c1ccc(F)cc1F` [Example 77, (Z)-2,4-difluoro-N-(5-(4-(4-(2-fluoro-4-oxopent-2-enoyl)piperazin-1-yl)quinazolin-6-yl)-2-methoxypyridin-3-yl)benzenesulfonamide], the IC50 on PI3Kα (Table 2) was 3.9 nM; in assay [1] (read-out: NCI-H358 (IC50, nM)) it was 221 nM. Regarding `CC(=O)/C=C/C(=O)N1CC2(CCN(c3ncnc4ccc(-c5cnc(Cl)c(NS(=O)(=O)c6c(F)cccc6F)c5)cc34)C2)C1` [Example 86, (E)-N-(2-chloro-5-(4-(2-(4-oxopent-2-enoyl)-2,6-diazaspiro[3.4]octan-6-yl)quinazolin-6-yl)pyridin-3-yl)-2,6-difluorobenzenesulfonamide], the IC50 on PI3Kα (Table 2) was 0.31 nM; in assay [1] (setting [2]) it was 271 nM. Regarding `COc1ncc(-c2ccc3ncnc(N4CC5CCC(C4)N5C(=O)/C=C/C(C)=O)c3c2)cc1NS(=O)(=O)c1ccccc1F` [Example 151, 2-fluoro-N-(2-methoxy-5-(4-(8-((E)-4-oxopent-2-enoyl)-3,8-diazabicyclo[3.2.1]octan-3-yl)quinazolin-6-yl)pyridin-3-yl)benzenesulfonamide], the IC50 on PI3Kα (Table 4) worked out at 5.9 nM; in assay [1] (setting [2]) it was 80.3 nM. Turning to `CC(=O)/C=C/C(=O)N1CC2(CCN(c3ncnc4ccc(-c5cnc(Cl)c(NS(=O)(=O)c6c(F)cccc6F)c5)cc34)CC2)C1` [Example 87, (E)-N-(2-chloro-5-(4-(2-(4-oxopent-2-enoyl)-2,7-diazaspiro[3.5]nonan-7-yl)quinazolin-6-yl)pyridin-3-yl)-2,6-difluorobenzenesulfonamide], the IC50 on PI3Kα (Table 2) was found to be 2.4 nM; in assay [1] (setting [2]), 131 nM. The like results for `COc1ccc(-c2ccc3ncnc(N4CCN(C(=O)/C=C/C(C)=O)CC4)c3c2)cc1NS(=O)(=O)c1ccc(F)cc1F` [Example 95, (E)-2,4-difluoro-N-(2-methoxy-5-(4-(4-(4-oxopent-2-enoyl)piperazin-1-yl)quinazolin-6-yl)phenyl)benzenesulfonamide] were, in that order, 414 nM and 576 nM. For `CC(=O)/C=C/C(=O)N1CCN(c2ncnc3ccc(-c4cnc(OC5CC5)c(NS(=O)(=O)c5ccc(F)cc5F)c4)cc23)CC1` [Example 110, (E)-N-(2-cyclopropoxy-5-(4-(4-(4-oxopent-2-enoyl)piperazin-1-yl)quinazolin-6-yl)pyridin-3-yl)-2,4-difluorobenzenesulfonamide], the figures for the IC50 (at PI3Kα (Table 2); in assay [1] (setting [2])) were 3.5 nM and 155 nM, respectively. The like results for `COc1ncc(-c2ccc3ncnc(N4CCN(C(=O)C5=CC(=O)CCC5)CC4)c3c2)cc1NS(=O)(=O)c1c(F)cccc1F` [Example 54, 2,6-difluoro-N-(2-methoxy-5-(4-(4-(3-oxocyclohex-1-ene-1-carbonyl)piperazin-1-yl)quinazolin-6-yl)pyridin-3-yl) benzenesulfonamide] were, in that order, 2.5 nM and 10.4 nM. The matching figures for `C=C(C(=O)N1CCN(c2ncnc3ccc(-c4cnc(OC)c(NS(=O)(=O)c5ccc(F)cc5F)c4)cc23)CC1)C(C)C` [Example 63, 2,4-difluoro-N-(2-methoxy-5-(4-(4-(3-methyl-2-methylene-butanoyl)piperazin-1-yl)quinazolin-6-yl)pyridin-3-yl) benzene-sulfonamide]: 6.2 nM and 19.6 nM. With `C=CC(=O)N1CCC(Nc2ncnc3ccc(-c4cnc(OC)c(NS(=O)(=O)c5ccc(F)cc5F)c4)cc23)C1` (stereo not shown) [Example 147, N-(5-(4-((1-acryloylpyrrolidin-3-yl)amino)quinazolin-6-yl)-2-methoxypyridin-3-yl)-2,4-difluorobenzenesulfonamide], the IC50 was found to be 1.6 nM at PI3Kα (Table 4) and 790 nM in assay [1] (setting [2]). For the compound `CCOc1c([C@H](C)n2nc(C)c3c(N)ncnc32)cc(Cl)c(F)c1[C@@H]1CNC(=O)C1` [Parsaclisib, reference compound], the IC50 came to 8 nM on PI3Kδ (Table 2), 6 nM on PI3Kδ (Table 3) and 4 nM on PI3Kδ (Table 4).
